For data set [1], the system named is P. aeruginosa MB9798 (efflux+, IMP-1 plasmid). To be noted: for MB9798 MITC95 P. aeruginosa uM Efflux WT: efflux + (MB9798) strain, imipenem at 2 μg/mL, in the presence of a class A, C, D serine β-lactamase inhibitor closely related to relebactam; for Efflux ratio: fold difference between efflux+ (MB9798) and efflux− (MB9799) strains. The gist of the method: (§1)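 PAO1-derived isogenic pair (oprD+, inducible AmpC), efflux+ MB5919 or efflux− MB5890 parent, carrying an electroporated IMP-1 plasmid from a clinical isolate. Microbroth MIC with fixed imipenem and/or ceftazidime (usually CLSI breakpoint) plus fixed class A/C inhibitor; MBL inhibitor serially titrated, concentration restoring susceptibility recorded.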

For another data set, the target named is VIM-2 (Escherichia coli, UniProt Q5U7L7). Nature of the data set: biochemical. Particulars: CCF2-FA fluorescence assay; read-out: VIM2 IC50.
For another data set, the target named is VIM-1 (Pseudomonas aeruginosa (strain ATCC 15692 / DSM 22644 / CIP 104116 / JCM 14847 / LMG 12228 / 1C / PRS 101 / PAO1), UniProt A0A0F7KYQ8). Nature of the data set: biochemical. To be noted: CCF2-FA fluorescence assay, 2 hours at 25° C.; read-out: VIM1 IC50. In short, it runs like this: (§2)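 In pH 7 phosphate buffer (100 mM) with 10 μM ZnSO4 and 0.005% Tween-20, CCF2-FA hydrolysis (1.25 μM) by 1 pM NDM-1, 2 pM IMP-1 or 30 pM VIM-1 was run 2 h at 25° C with inhibitor from 20 to 0.00063 μM. Ex 405/em 460 nm signal fitted to a 4-parameter curve for IC50.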

A further data set addresses IMP-1 (Serratia marcescens, UniProt P52699). Nature of the data set: biochemical. Particulars: CCF2-FA fluorescence assay, 2 hours at 25° C.; read-out: IMP1 IC50. The gist of the method: as §2
The target in the next data set is NDM-1 (Klebsiella pneumoniae, UniProt C7C422). Nature of the data set: biochemical. Format: biochemical. To be noted: CCF2-FA fluorescence assay, 2 hours at 25° C. The gist of the method:
as §2

In data set [2] the test system is Escherichia coli expressing NDM-1 (CLB30016). It is filed as cell-based. Particulars: with imipenem 1 μg/ml; 95% inhibition of bacterial growth. In short, it runs like this:
(§3)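 Each strain, diluted 1:100 from saline suspension into 1.1× CAMHB, was combined with imipenem held at 1 μg/ml and graded inhibitor. Growth after 22–24 h at 35 °C was measured by absorbance, and the lowest concentration achieving 95% inhibition defined MITC95.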

The subject of data set [3] is Klebsiella pneumoniae expressing VIM-1 (IHMA599644). Format: cell-based. Particulars: with imipenem 1 μg/ml; 95% inhibition of bacterial growth. The gist of the method:
as §3

The test system of data set [4] is Serratia marcescens expressing IMP-1 (CL5741). Format: cell-based. Particulars: with imipenem 1 μg/ml; 95% inhibition of bacterial growth. In short, it runs like this: as §3
Data set [5] deals with P. aeruginosa MB9799 (efflux-, IMP-1 plasmid). It is filed as cell-based, Pseudomonas aeruginosa. Particulars: efflux − (MB9799) strain; imipenem at 2 μg/mL; in the presence of a class A, C, D serine β-lactamase inhibitor closely related to relebactam. In short, it runs like this:
as §1

Each structure is given as a SMILES string.

Sequence of NDM-1 (C7C422 whole entry, looked up, species assumed): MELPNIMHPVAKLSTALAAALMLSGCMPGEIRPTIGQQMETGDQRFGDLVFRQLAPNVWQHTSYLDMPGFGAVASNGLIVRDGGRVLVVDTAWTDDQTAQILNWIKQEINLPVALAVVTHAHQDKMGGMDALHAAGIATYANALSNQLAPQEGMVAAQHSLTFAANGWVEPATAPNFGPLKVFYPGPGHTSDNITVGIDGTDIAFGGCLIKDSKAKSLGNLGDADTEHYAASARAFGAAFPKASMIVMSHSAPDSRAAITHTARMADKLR
Sequence of IMP-1 (P52699 whole entry, looked up, species assumed): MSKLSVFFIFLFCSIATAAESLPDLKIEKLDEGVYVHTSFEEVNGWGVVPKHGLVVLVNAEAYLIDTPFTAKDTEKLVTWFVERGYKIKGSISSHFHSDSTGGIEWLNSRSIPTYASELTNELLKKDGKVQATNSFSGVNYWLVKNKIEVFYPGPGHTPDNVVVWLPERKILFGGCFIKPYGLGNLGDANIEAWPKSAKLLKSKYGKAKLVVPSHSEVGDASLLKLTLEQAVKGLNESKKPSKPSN

Turning to `NC(=O)[C@H]1CN(c2ccc(S(=O)(=O)N[C@@H]3CCNC3)c(S(N)(=O)=O)c2-c2nn[nH]n2)CCN1` [Example 197, (R)-4-(4-(N-((R)-pyrrolidin-3-yl)sulfamoyl)-3-sulfamoyl-2-(2H-tetrazol-5-yl)phenyl)piperazine-2-carboxamide], the “MB9798 MITC95 P. aeruginosa uM Efflux WT” value in data set [1] was determined as 3.13 µM. For the same compound, the Efflux ratio in data set [1] turned out to be 2.00. For the same compound, the IC50 (usually the midpoint of a concentration-inhibition curve) on VIM-2 was found to be 1.89 nM; on VIM-1, 0.74 nM; on IMP-1, 9.95 nM; on NDM-1, 1.44 nM. In [2], the “CLB30016 E. coli MITC95 NDM” value was 0.29 µM. Moreover, the “IHMA599644 K. pneumoniae MITC95 VIM” value in data set [3] came out at 1.56 µM. The “CL5741 S. marcescens MITC95 IMP” value in data set [4] is 0.39 µM. Besides, in data set [5], the “MB9799 MITC95 P. aeruginosa uM Efflux Mutant” value worked out at 1.56 µM.

Consider `NC[C@@H](O)CNS(=O)(=O)c1ccc(N2CCN(CCCO)CC2)c(-c2nnn[nH]2)c1S(N)(=O)=O` [Example 40, (R)-N1-(3-amino-2-hydroxypropyl)-4-(4-(3-hydroxypropyl)piperazin-1-yl)-3-(1H-tetrazol-5-yl)benzene-1,2-disulfonamide], for which the “MB9798 MITC95 P. aeruginosa uM Efflux WT” value in data set [1] was found to be 1.56 µM. Moreover, in data set [1], the Efflux ratio was determined as 2.00. The IC50 on VIM-2 was 7.36 nM; on VIM-1, 5.87 nM; on IMP-1 it was 3.56 nM; at NDM-1, 3.07 nM. For the same compound, the “CLB30016 E. coli MITC95 NDM” value in data set [2] came out at 0.05 µM. The “IHMA599644 K. pneumoniae MITC95 VIM” value in data set [3] came out at 0.78 µM. Besides, the “CL5741 S. marcescens MITC95 IMP” value in [4] was determined as 0.10 µM. In data set [5], the “MB9799 MITC95 P. aeruginosa uM Efflux Mutant” value is 0.78 µM.

As to `NCC1CCN(c2ccc(S(=O)(=O)C[C@H](O)CN)c(S(N)(=O)=O)c2-c2nn[nH]n2)CC1` [Example 128, (R)-6-((3-amino-2-hydroxypropyl)sulfonyl)-3-(4-(aminomethyl)piperidin-1-yl)-2-(2H-tetrazol-5-yl)benzenesulfonamide], in [1], the “MB9798 MITC95 P. aeruginosa uM Efflux WT” value stood at 0.78 µM. In addition, the Efflux ratio in data set [1] stood at 2.00. Further, the IC50 on VIM-2 came out at 13.3 nM; on VIM-1, 0.94 nM; on IMP-1, 3.65 nM; on NDM-1, 8.71 nM. The “CLB30016 E. coli MITC95 NDM” value in data set [2] was 0.39 µM. Besides, the “IHMA599644 K. pneumoniae MITC95 VIM” value in data set [3] amounted to 0.78 µM. For the same compound, the “CL5741 S. marcescens MITC95 IMP” value in data set [4] came to 0.78 µM. For the same compound, in [5], the “MB9799 MITC95 P. aeruginosa uM Efflux Mutant” value is 0.39 µM.

For `CC(=O)N[C@@H]1CCN(c2ccc(S(=O)(=O)N[C@@H]3CCNC3)c(S(N)(=O)=O)c2-c2nnn[nH]2)C1` [Example 95, N-[(3R)-1-{4-[(3R)-pyrrolidin-3-ylsulfamoyl]-3-sulfamoyl-2-(1H-tetrazol-5-yl)phenyl}pyrrolidin-3-yl]acetamide], in data set [1], the “MB9798 MITC95 P. aeruginosa uM Efflux WT” value turned out to be 6.25 µM. Also, the Efflux ratio in data set [1] was 2.00. The IC50 came to 6.09 nM at VIM-2, 1.42 nM on VIM-1, 1.55 nM on IMP-1 and 4.31 nM on NDM-1. The “CLB30016 E. coli MITC95 NDM” value in [2] was 6.25 µM. Moreover, in [3], the “IHMA599644 K. pneumoniae MITC95 VIM” value was determined as 12.50 µM. Further, the “CL5741 S. marcescens MITC95 IMP” value in data set [4] is 6.25 µM. For the same compound, the “MB9799 MITC95 P. aeruginosa uM Efflux Mutant” value in data set [5] is 3.13 µM.

Regarding `Cl.Cl.NCC1CCN(c2ccc(S(=O)(=O)N[C@@H]3CCNC3)c(S(N)(=O)=O)c2-c2nn[nH]n2)CC1` [Example 135, (R)-4-(4-(aminomethyl)piperidin-1-yl)-N1-(pyrrolidin-3-yl)-3-(2H-tetrazol-5-yl)benzene-1,2-disulfonamide dihydrochloride], the “MB9798 MITC95 P. aeruginosa uM Efflux WT” value in data set [1] is 0.59 µM. In [1], the Efflux ratio was 1.50. For the same compound, the IC50 at VIM-2 came to 3 nM; on VIM-1, 0.16 nM; on IMP-1, 3.43 nM; against NDM-1 it was 1.13 nM. Besides, the “CLB30016 E. coli MITC95 NDM” value in data set [2] was 0.59 µM. Besides, the “IHMA599644 K. pneumoniae MITC95 VIM” value in data set [3] turned out to be 1.17 µM. Also, the “CL5741 S. marcescens MITC95 IMP” value in [4] came to 0.78 µM. Moreover, the “MB9799 MITC95 P. aeruginosa uM Efflux Mutant” value in [5] amounted to 0.39 µM.

For the origin of these results see patent publication US11207312B2, “Metallo-beta-lactamase inhibitors and methods of use thereof” (priority 2017, dated 2021).
